Where a SMILES comes first, the peptide text is derived from it. [ ]: non-standard residue; d: D form. Pro(cis-4-Ph) = O=C(O)[C@@H]1C[C@H](c2ccccc2)CN1; Phe(3-CN) = N#Cc1cccc(C[C@H](N)C(=O)O)c1; Ala(2-furyl) = N[C@@H](Cc1ccco1)C(=O)O; Abu = CC[C@H](N)C(=O)O
Assays:
[1] = target: T1, XIAP BIR3 (Homo sapiens, UniProt P98170); assay: Biotinylated BIR3 XIAP domain Alphascreen assay; design: biotinylated XIAP BIR3; biotin (biotinylated); conditions: biotinylated XIAP BIR3, FITC-labeled IAP-binding molecule, Streptavidin Donor / Anti-FITC Acceptor Beads, incubation 2 hours; concentration reducing alphascreen signal to half of maximum
Description: Biotinylated BIR3 XIAP Domain Alphascreen Assay Compounds were incubated with Streptavidin Donor Beads, Anti-FITC Acceptor Beads, biotinylated XIAP BIR3 and a FITC-labeled IAP-binding molecule. Following incubation for 2 hours the wells were read in an Envision reader. IC50s correspond to the concentration of compound which reduces the alphascreen signal to half of the maximum.
Target sequence in this assay (P98170 241-356 limits assumed): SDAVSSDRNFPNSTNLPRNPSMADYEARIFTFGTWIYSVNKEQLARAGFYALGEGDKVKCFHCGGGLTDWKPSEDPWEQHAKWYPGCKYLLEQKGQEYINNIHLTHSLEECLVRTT

[2] = target: T1, XIAP BIR3; assay: HIS-tagged BIR3 XIAP domain Alphascreen assay; design: HIS-tagged XIAP BIR3 (RnD systems); purchased RnD systems; conditions: HIS-tagged XIAP BIR3 (RnD systems), biotin-labeled IAP-binding molecule, Streptavidin Donor / Ni-NTA Acceptor Beads, incubation 2 hours; concentration reducing alphascreen signal to half of maximum
Description: HIS-Tagged BIR3 XIAP Domain Alphascreen Assay
Compounds were incubated with Streptavidin Donor Beads, Ni-NTA Acceptor Beads, HIS-tagged XIAP BIR3 (RnD systems) and a biotin-labeled IAP-binding molecule. Following incubation for 2 hours the wells were read in an Envision reader. IC50s correspond to the concentration of compound which reduces the alphascreen signal to half of the maximum.
Target sequence in this assay (P98170 252-356 limits assumed): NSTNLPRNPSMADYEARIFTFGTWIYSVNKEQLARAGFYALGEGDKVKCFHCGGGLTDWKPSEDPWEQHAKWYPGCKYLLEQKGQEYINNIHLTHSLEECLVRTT

| Compound | IC50 [1] | IC50 [2] |
| --- | --- | --- |
| CNC(=O)[C@@H]1C[C@H](c2ccccc2)CN1C(=O)[C@@H]1C[C@H](c2ccccc2)CN1C(=O)C(Cn1cncn1)NC(=O)[C@H](C)N (stereo partly drawn) [Example 21, (2S,4R)-1-((3R,5S)-1-(2-((S)-2-aminopropanamido)-3-(1H-1,2,4-triazol-1-yl)propanoyl)-3-phenylpyrrolidine-5-carbonyl)-N-methyl-4-phenylpyrrolidine-2-carboxamide] | 0.1 to 100 nM |  |
| C[C@H](N)C1CCCC(C(=O)N2C[C@@H](c3ccccc3)C[C@H]2C(=O)N2CC[C@H](c3ccccc3)C2)N1 (stereo partly drawn) [Example 8, [6-((S)-1-Amino-ethyl)-piperidin-2-yl]-[(2S,4R)-4-phenyl-2-((R)-3-phenyl-pyrrolidine-1-carbonyl)-pyrrolidin-1-yl]-methanone] | 100 to 1000 nM |  |
| C[C@@H](N)C(=O)N[C@@H](Cc1ccc(C(N)=O)cc1)C(=O)N1C[C@@H](c2ccccc2)C[C@H]1C(=O)N[C@@H]1CCc2ccccc21 [Example 17, (2S,4R)-1-((S)-2-((R)-2-aminopropanamido)-3-(4-carbamoylphenyl)propanoyl)-N—((R)-2,3-dihydro-1H-inden-1-yl)-4-phenylpyrrolidine-2-carboxamide] | 0.1 to 100 nM |  |
| CNC(=O)[C@@H]1C[C@H](c2ccccc2)CN1C(=O)[C@@H]1C[C@H](c2ccccc2)CN1C(=O)[C@H](Cc1cccc(C#N)c1)NC(=O)[C@H](C)N [Example 20, (2S,4R)-1-((3R,5S)-1-((S)-2-((S)-2-aminopropanamido)-3-(3-cyanophenyl)propanoyl)-3-phenylpyrrolidine-5-carbonyl)-N-methyl-4-phenylpyrrolidine-2-carboxamide] (H-A[Phe(3-CN)][Pro(cis-4-Ph)][Pro(cis-4-Ph)]-NHMe) | 0.1 to 100 nM |  |
| O=C(N[C@@H]1CCc2ccccc21)[C@@H]1C[C@@H](C2CCCCC2)CN1C(=O)C1CC2(CCNCC2)CN1 (stereo partly drawn) [Example 13, (2S,4S)-4-Cyclohexyl-1-(2,8-diaza-spiro[4.5]decane-3-carbonyl)-pyrrolidine-2-carboxylic acid (R)-indan-1-ylamide] |  | 100 to 1000 nM |
| C[C@H](N)C(=O)N[C@@H](Cc1cccc(C(N)=O)c1)C(=O)N1CC(C(=O)NC2CCc3ccccc32)C1c1ccccc1 (stereo in doubt) [Example 24, 1-((S)-2-((S)-2-aminopropanamido)-3-(3-carbamoylphenyl)propanoyl)-N—((R)-2,3-dihydro-1H-inden-1-yl)-2-phenylazetidine-3-carboxamide] | 0.1 to 100 nM |  |
| CC[C@H](NC)C(=O)N[C@@H](Cc1cccc(C#N)c1)C(=O)N1C[C@@H](c2ccccc2)C[C@H]1CN1CC[C@H](c2ccccc2)C1 [Example 22, (S)—N—((S)-3-(3-cyanophenyl)-1-oxo-1-((2S,4R)-4-phenyl-2-(((R)-3-phenylpyrrolidin-1-yl)methyl)pyrrolidin-1-yl)propan-2-yl)-2-(methylamino)butanamide] | 0.1 to 100 nM |  |
| O=C(N[C@H](C(=O)N[C@@H]1CCc2ccccc21)C1CCCCC1)C1CC2(CCNCC2)CN1 (stereo partly drawn) [Example 14, 2,8-Diaza-spiro[4.5]decane-3-carboxylic acid [(S)-cyclohexyl-((R)-indan-1-ylcarbamoyl)-methyl]-amide] |  | 100 to 1000 nM |
| CC[C@H](NC(=O)[C@H](C)N)C(=O)N1C[C@@H](c2ccccc2)C[C@H]1C(=O)N1C[C@@H](c2ccccc2)C[C@H]1C(=O)NC [Example 16, (2S,4R)-1-((3R,5S)-1-((S)-2-((S)-2-aminopropanamido)butanoyl)-3-phenylpyrrolidine-5-carbonyl)-N-methyl-4-phenylpyrrolidine-2-carboxamide] (H-A[Abu][Pro(cis-4-Ph)][Pro(cis-4-Ph)]-NHMe) | 0.1 to 100 nM |  |
| C[C@@H](N)C1CCCC(C(=O)N2C[C@@H](c3ccccc3)C[C@H]2C(=O)N2CC[C@H](c3ccccc3)C2)N1 (stereo partly drawn) [Example 7, [6-((R)-1-Amino-ethyl)-piperidin-2-yl]-[(2S,4R)-4-phenyl-2-((R)-3-phenyl-pyrrolidine-1-carbonyl)-pyrrolidin-1-yl]-methanone] | > 1000 nM |  |
| CNC(=O)[C@@H]1C[C@H](c2ccccc2)CN1C(=O)[C@@H]1C[C@H](c2ccccc2)CN1C(=O)[C@H](Cc1ccco1)NC(=O)[C@H](C)N [Example 15] (H-A[Ala(2-furyl)][Pro(cis-4-Ph)][Pro(cis-4-Ph)]-NHMe) | 0.1 to 100 nM |  |
| C[C@@H](N)C(=O)N[C@@H](Cc1cccc(C(N)=O)c1)C(=O)N1C[C@@H](c2ccccc2)C[C@H]1C(=O)N[C@@H]1CCc2ccccc21 [Example 23, (2S,4R)-1-((S)-2-((R)-2-aminopropanamido)-3-(3-carbamoylphenyl)propanoyl)-N—((R)-2,3-dihydro-1H-inden-1-yl)-4-phenylpyrrolidine-2-carboxamide] | 0.1 to 100 nM |  |
| C[C@H](N)C(=O)N[C@@H](Cc1cccc(C(N)=O)c1)C(=O)N1CC(c2ccccc2)C1C(=O)N[C@@H]1CCc2ccccc21 (stereo partly drawn) [Example 18, 1-((S)-2-((S)-2-aminopropanamido)-3-(3-carbamoylphenyl)propanoyl)-N—((R)-2,3-dihydro-1H-inden-1-yl)-3-phenylazetidine-2-carboxamide] | 0.1 to 100 nM |  |
| C[C@H](N)C(=O)N[C@@H](Cc1cccc(C#N)c1)C(=O)N1C[C@@H](c2ccccc2)C[C@H]1C(=O)N[C@@H]1CCc2ccccc21 [Example 19, (2S,4R)-1-((S)-2-((S)-2-aminopropanamido)-3-(3-cyanophenyl)propanoyl)-N—((R)-2,3-dihydro-1H-inden-1-yl)-4-phenylpyrrolidine-2-carboxamide] | 0.1 to 100 nM |  |

Now from value to compound:

| IC50 [1] | IC50 [2] | Compound |
| --- | --- | --- |
| 100 to 1000 nM |  | CC(N)c1cccc(C(=O)N2C[C@@H](c3ccccc3)C[C@H]2C(=O)N2CC[C@H](c3ccccc3)C2)c1 (stereo partly drawn) [Example 6, [3-(1-Amino-ethyl)-phenyl]-[(2S,4R)-4-phenyl-2-((R)-3-phenyl-pyrrolidine-1-carbonyl)-pyrrolidin-1-yl]-methanone] |
| 100 to 1000 nM |  | CC(N)c1ccc(C(=O)N2C[C@@H](c3ccccc3)C[C@H]2CN2CC[C@H](c3ccccc3)C2)o1 (stereo partly drawn) [Example 2, (5-(1-Aminoethyl)furan-2-yl)((2S,4R)-4-phenyl-2-(((R)-3-phenylpyrrolidin-1-yl)methyl)pyrrolidin-1-yl)methanone] |
|  | 100 to 1000 nM | CNC(C)c1ccc(C(=O)N2C[C@@H](c3ccccc3)C[C@H]2CN2CC[C@H](c3ccccc3)C2)o1 (stereo partly drawn) [Example 10, (5-(1-(methylamino)ethyl)furan-2-yl)((2S,4R)-4-phenyl-2-(((R)-3-phenylpyrrolidin-1-yl)methyl)pyrrolidin-1-yl)methanone] |
|  | 100 to 1000 nM | CNC(C)c1cccc(C(=O)N2C[C@@H](c3ccccc3)C[C@H]2C(=O)N2CC[C@H](c3ccccc3)C2)c1 (stereo partly drawn) [Example 3, [3-(1-Methylamino-ethyl)-phenyl]-[(2S,4R)-4-phenyl-2-((R)-3-phenyl-pyrrolidine-1-carbonyl)-pyrrolidin-1-yl]-methanone] |
| 0.1 to 100 nM |  | CC(N)c1ccc(C(=O)N2C[C@@H](c3ccccc3)C[C@H]2C(=O)N2CC[C@H](c3ccccc3)C2)o1 (stereo partly drawn) [Example 5, [5-(1-Amino-ethyl)-furan-2-yl]-[(2S,4R)-4-phenyl-2-((R)-3-phenyl-pyrrolidine-1-carbonyl)-pyrrolidin-1-yl]-methanone] |
|  | 100 to 1000 nM | CNC(C)c1cccc(C(=O)N2C[C@@H](c3ccccc3)C[C@H]2CN2CC[C@H](c3ccccc3)C2)c1 (stereo partly drawn) [Example 11, (3-(1-(methylamino)ethyl)phenyl)((2S,4R)-4-phenyl-2-(((R)-3-phenylpyrrolidin-1-yl)methyl)pyrrolidin-1-yl)methanone] |
|  | 0.1 to 100 nM | CNC(C)c1ccc(C(=O)N2C[C@@H](c3ccccc3)C[C@H]2C(=O)N2CC[C@H](c3ccccc3)C2)o1 (stereo partly drawn) [Example 1, [5-(1-Methylamino-ethyl)-furan-2-yl]-[(2S,4R)-4-phenyl-2-((R)-3-phenyl-pyrrolidine-1-carbonyl)-pyrrolidin-1-yl]-methanone] |
|  | 0.1 to 100 nM | CNC(C)c1ccc(C(=O)N2C[C@@H](c3ccc(F)cc3)C[C@H]2C(=O)N2CCC(c3ccc(F)cc3)C2)o1 (stereo partly drawn) [Example 9, {(2S,4R)-4-(4-Fluoro-phenyl)-2-[3-(4-fluoro-phenyl)-pyrrolidine-1-carbonyl]-pyrrolidin-1-yl}-[5-(1-methylamino-ethyl)-furan-2-yl]-methanone] |

Source: patent publication US20110230419A1, “IAP BINDING COMPOUNDS” (Nuevolution A/S, priority 2008, published 2011)
